“Also recorded” adds a separate entry of the source.
Assays:
[1] = tested on: icIL-1ra type 1 mRNA; assay: antisense oligonucleotide against icIL-1ra type 1 in HF-icIL-1ra fibroblasts, MMP-1 mRNA by RT-PCR; format: cell-based, human; conditions: for MMP-1 mRNA levels: HF-icIL-1ra, vs PBS, empty liposome, scrambled oligonucleotide
Protocol: Phosphorothioate-derivatized antisense oligodeoxynucleotide complimentary to −6 to +12 of the natural icIL-1ra was synthesized and purified by HPLC Integrated DNA Technologies Inc. (Coralville, Iowa). As a control, antisense oligonucleotide with a scrambled sequence was prepared by a similar method. Fibroblasts over-expressing icIL-1ra type 1 were transfected with […] of antisense icIL-1ra type 1 oligonucleotide (24 h prior to stimulation with 100 pg/ml of IL-1 beta) using LipofectAMINE™ protocol. PBS and LipofectAMINE™ alone served as additional controls. The cells were harvested 12-18 h after stimulation for RNA extraction. Total RNA was reverse transcribed and MMP-1 mRNA was estimated by semi-quantitative RT-PCR.
Fibroblasts over-expressing icIL-1ra type 1 were transfected with different concentrations of antisense icIL-1ra type 1 oligonucleotide (24 h prior to stimulation with IL-1β) using LipofectAMINE. PBS alone, LipofectAMINE alone and treatment with oligonucleotide having scrambled sequence served as controls. The cells were harvested 12-18 h after stimulation for RNA extraction. Total RNA was reverse transcribed and MMP-1 mRNA was estimated by real time RT-PCR. The values indicate mean±SD of three independent experiments performed on same batch of transfected geneticin selected fibroblasts (LIPO: LipofectAMINE alone, ANTIS-LIP: Antisense icIL-1ra oligonucleotide+LipofectAMINE, SCRAM-LIP: Scrambled oligonucleotide+LipofectAMINE).
Cells transfected with intracellular isoform of IL-1 receptor antagonist type 1 (HF-icIL-1ra) were treated with varying concentrations of antisense oligonucleotide directed against the intracellular isoform of IL-1 receptor antagonist type 1 mRNA. Oligonucleotide with a scrambled sequence was used as control. Both oligonucleotides were mixed with LipofectAMINE™ reagent to enhance cellular uptake.
Using the approach described in Example 5, a phosphorothioate-derivatized antisense oligodeoxynucleotide complimentary to −6 to +12 (5′-CGTCTGTAAAGGCATGGG-3′ SEQ ID NO: 41) of the natural icIL-1ra type 1 was synthesized and RHPLC purified. […]

[2] = tested on: collagenase (MMP-1); assay: IL-1β-induced collagenase (MMP-1) production by dermal fibroblasts, ELISA; format: cell-based, human; conditions: added 2 hours before IL-1β, 48 hrs, IL1β + PBS 1351, PBS + PBS 556
Protocol: Confluent fibroblast monolayer cultures were treated for 2 hr with IL-1ra peptides and cultured for 48 h with hrIL-1β. Collagenase protein was measured in culture supernatants by ELISA.
Furthermore, the effect of the IL-1ra peptides on the stimulation of MMP-1 and TIMP expression was examined. Briefly, fibroblasts were seeded in wells of Flacon 3008 multiwell plates (5×10^4 cells/500 μl Maintenance Medium). After 72 h culture, the medium was removed from each well and replaced with Maintenance Medium (450 μl) containing 5% FCS and 25 μl of IL-1ra peptides or hrsIL-1ra peptide being tested. Two hrs later 25 μl IL-1β (100 pg/ml) was added to appropriate wells. Plates were incubated for 48 h, at which time medium was collected from each well. Levels of TIMP and collagenase produced by fibroblasts during culture were measured by specific ELISA techniques as previously described (Postlethwaite et al., 1988).

[3] = tested on: collagen-induced arthritis (CIA); assay: collagen-induced arthritis in DBA/1 lac mice, peptides by s.c. injection; format: in vivo; conditions: s.c. 227 μg/kg once daily, 5 consecutive days each week, day 22 to day 50, vs control peptide IL-1ra 37-30
Protocol: Groups of 12 mice were treated with subcutaneous injections of NLS-IL-1ra 1-35 (SEQ ID NO: 18), NLS-IL-1ra 30-37 ([…]) or IL-1ra 37-30 (SEQ ID NO: 43) as a control beginning day 22 to day 50. Mice were injected once each consecutive 5 days out of each week. Mean arthritic score is shoon. P values are determined by Students' t test.
The peptides disclosed in table 11 were delivered to the mice using 2 approaches. The first approach consisted of daily injections for 5 days each week via the subcutaneous (s.c.) route after the first appearance of clinical arthritis. The second approach consisted of continuous delivery via a subcutaneously implanted osmotic pump. For these studies, the following protocols were used: Since a smaller fragment of the 37 amino acid IL-1ra peptide containing amino acids LVAGY (SEQ ID NO: 42) inhibit IL-1β, TNFα, and bFGF induction of MMP-1 in human fibroblasts in vitro, effects of several peptides containing the LVAGY (SEQ ID NO: 42) sequence (Table 11) on CIA in mice was examined.
For s.c. injected route of delivery, 36 six-week old female DBA-1 lac mice were immunized with a stable emulsion of complete Freund's adjuvant (CFA) and native bovine II prepared as previously described (Seyer et al., 1989). Each mouse received 100 μg CII in 50 μl of the CFA CII emulsion intradermally at the base of the tail. Beginning day 14 post immunization, mice were examined for the presence of paw swelling as an indication of the onset of arthritis. On day 21 post immunization, the first paw swelling occurred in 2 mice and on day 22 post immunization, mice were divided into groups of 12. NLS-IL-1ra 1-35 (SEQ ID NO: 18), NSL-IL-1ra 30-37 (SEQ ID NO: 43), and reverse control peptide IL-1ra 37-30 (SEQ ID NO: 44) were separately administered s.c. to groups of 12 mice beginning on day 22 post immunization to day 50 post immunization. […] Results described herein are expressed as the mean arthritic score per mouse arrived at by adding up the total joint scores for mice in each group divided by the number of mice in the group.

[4] = tested on: collagenase; assay: TNF alpha-stimulated fibroblast collagenase production; format: cell-based; conditions: TNF alpha + PBS 9391, PBS 645
Protocol: (§1) To potentially enhance translocation of the peptide, a nuclear localization sequence (NLS), namely, KKKMEKR from human IL-1β was added to the peptide with SEQ ID NO: 13 and the effect of the peptide with and without the NLS on collagenase production was assessed. In this case the cultures were stimulated with TNF-α or basic fibroblast growth factor (bFGF).

[5] = tested on: collagenase; assay: bFGF-stimulated fibroblast collagenase production; format: cell-based; conditions: bFGF + PBS 5058, PBS 645
Protocol: as §1

[6] = tested on: collagen-induced arthritis (CIA); assay: collagen-induced arthritis in DBA/1 mice, peptide by osmotic pump; format: in vivo
Protocol: The mice (total=20) were immunized by subcutaneous injection at the base of the tail with 100 μg/ml of bovine CII in CFA at day 0. At day 20, an Alzet Osmotic pump-2004 containing 1.67 mg NLS-IL-1ra (1-35) peptide (SEQ ID NO: 18) in 200 microliters D5W solvent (n=10) or the solvent alone (n=10) was surgically inserted subcutaneously in each of 10 mice. Beginning at 21 days after immunization, mice were monitored for the severity (FIG. 40A) and incidence (FIG. 40B) of arthritis.
For osmotic pump delivery of peptide, at day 20 following immunization, an Alzet Osmotic pump-2004 (Durect Corporation, Cupertino, Calif.), containing 1.67 mg NLS-ILra 1-35 peptide in 200 microliters D5W solvent was surgically inserted subcutaneously in each of 10 mice. According to the manufacturer's specifications, the pumps are designed to inject constantly for 4 weeks at the speed of […] 6 μl (50 μg peptide)/day. Each of the 10 control mice received a pump containing same amount D5W only. Animals were periodically monitored for incidence and severity of arthritis and scored as described above.

[7] = IL1β (100 pg/mL) + peptide 100 ng/mL
[8] = IL1β (100 pg/mL) + peptide 1 μg/mL
[9] = IL1β (100 pg/mL) + peptide 10 μg/mL

| Substance | Collagenase [2, 7] | Collagenase [2, 8] | Collagenase [2, 9] | also measured |
| --- | --- | --- | --- | --- |
| 5′-CGTCTGTAAAGGCATGGG-3′ (DNA, all phosphorothioate, methylation of C not given here) |  |  |  | reduced expression of MMP-1 mRNA and protein in icIL-1ra transfected fibroblasts ([1]; FIG. 36): reversed; MMP-1 mRNA levels ([1]; 200 mM antisense, 1.0 ng/ml hrIL-1β): significantly higher; MMP-1 mRNA levels ([1]; 300 mM antisense with LipofectAMINE, IL-1β stimulated, p=0.001): significantly higher |
| KKKMEKRLVAGYLQG (IL-1ra peptide) [NLS IL-1ra 30-37] |  |  |  | suppression of CIA, mean arthritic score ([3]; listed as NSL IL-1ra 30-37): suppressed CIA; suppression of CIA, mean arthritic score ([3]; listed as NSL-sIL-1ra 30-37): effective in reducing arthritis |
| KKKMEKRRPSGRKSSKMQAFRIWDVNQKTFYLRNNQLVAGYL (IL-1ra peptides) [NLS-IL-1ra] |  |  |  | Collagenase ([4]; TNF alpha (5 ng/ml) + peptide 100 pg/ml): 243 ng/mL; Collagenase ([4]; TNF alpha (5 ng/ml) + peptide 1 ng/ml): 238 ng/mL; Collagenase ([4]; TNF alpha (5 ng/ml) + peptide 10 ng/ml): 1199 ng/mL; Collagenase ([4]; TNF alpha (5 ng/ml) + peptide 100 ng/ml): 1254 ng/mL; Collagenase ([4]; TNF alpha (5 ng/ml) + peptide 1 μg/ml): 849 ng/mL; Collagenase ([5]; bFGF (5 ng/ml) + peptide 100 pg/ml): 2367 ng/mL; Collagenase ([5]; bFGF (5 ng/ml) + peptide 1 ng/ml): 2541 ng/mL; Collagenase ([5]; bFGF (5 ng/ml) + peptide 10 ng/ml): 3167 ng/mL; Collagenase ([5]; bFGF (5 ng/ml) + peptide 100 ng/ml): 3199 ng/mL; Collagenase ([5]; bFGF (5 ng/ml) + peptide 1 μg/ml): 5649 ng/mL; suppression of CIA, mean arthritic score [3]: suppressed CIA; incidence and severity of arthritis ([6]; osmotic pump from day 20, 50 μg peptide/day for 4 weeks, vs D5W solvent, listed as NLS-IL-1ra 1-35): reduced; also recorded: reduces incidence and severity of arthritis; delay of the onset of arthritis ([6]; osmotic pump, incidence and severity reached control levels after this time): 20 days |
| LVAGYLQG (IL-1ra peptides) [SEQ ID NO: 24] | 857 ng/mL | 841 ng/mL | 749 ng/mL |  |
| MQAFRIWDVNQKTFYLR (IL-1ra peptides) [SEQ ID NO: 20] | 2644 ng/mL | 2139 ng/mL | 2036 ng/mL |  |
| NNQLVAGY (IL-1ra peptides) [SEQ ID NO: 23] | 541 ng/mL | 619 ng/mL | 1078 ng/mL |  |

Further lines, with some results ahead:

| Collagenase [2, 7] | Collagenase [2, 8] | Collagenase [2, 9] | Substance | also measured |
| --- | --- | --- | --- | --- |
| 1514 ng/mL | 1827 ng/mL | 1881 ng/mL | FYLRNNQ (IL-1ra peptides) [SEQ ID NO: 22] |  |
| 2142 ng/mL | 2361 ng/mL | 2581 ng/mL | FYLRNNQLVAGYLQG (IL-1ra peptides) [SEQ ID NO: 21] |  |
| 1746 ng/mL | 1152 ng/mL | 1267 ng/mL | RPSGRKSSKMQAFRI (IL-1ra peptides) [SEQ ID NO: 19] |  |
